Results taken from patent US8211929B2, “Pyrimidine derivatives as kinase modulators and method of use” (Exelixis, Inc., priority 2004, dated 2012).
Where two headings read alike, the source gives them in different places.

Tests used:
[1] = molecular target: T1, (Homo sapiens, UniProt P08069); assay: IGF1R kinase assay (LCCA), IGF 0P; assay type: biochemical
T1 construct: human IGF1R kinase domain residues M954-C1367; made in house; host or cells: baculovirus expression (insect cells)
Protocol: (§1) Kinase activity and compound inhibition are investigated using one or more of the three assay formats described below. The ATP concentrations for each assay are selected to be close to the Michaelis-Menten constant (KM) for each individual kinase. Dose-response experiments are performed at 10 different inhibitor concentrations in a 384-well plate format. […] Y=Min+(Max−Min)/(1+(X/IC50)^H) Equation (2)
(§2) IGF1R kinase biochemical activity was assessed using a Luciferase-Coupled Chemiluminescent Kinase assay (LCCA) format. Kinase activity was measured as the percent ATP remaining following the kinase reaction. Remaining ATP was detected by luciferase-luciferin-coupled chemiluminescence. Specifically, the reaction was initiated by mixing test compounds, 3 μM ATP, 4 μM poly EY peptide and 4 nM IGF1R (baculovirus expressed human IGF1R kinase domain residues M954-C1367) in a 20 uL assay buffer (20 mM Tris-HCL pH7.5, 10 mM MgCl2, 0.02% Triton X-100, 1 mM DTT, 2 mM MnCl2). The mixture is incubated at ambient temperature for 2 hours after which 20 uL luciferase-luciferin mix is added and the chemiluminescent signal read using a Wallac Victor^2 reader.

IGF 3P = molecular target: T2, IGF 3P (Homo sapiens, UniProt P08069); assay: IGF1R kinase assay (LCCA), IGF 3P; assay type: biochemical
T2 construct: human IGF1R kinase domain residues M954-C1367; made in house; host or cells: baculovirus expression (insect cells)
T2 sequence (P08069 954-1367): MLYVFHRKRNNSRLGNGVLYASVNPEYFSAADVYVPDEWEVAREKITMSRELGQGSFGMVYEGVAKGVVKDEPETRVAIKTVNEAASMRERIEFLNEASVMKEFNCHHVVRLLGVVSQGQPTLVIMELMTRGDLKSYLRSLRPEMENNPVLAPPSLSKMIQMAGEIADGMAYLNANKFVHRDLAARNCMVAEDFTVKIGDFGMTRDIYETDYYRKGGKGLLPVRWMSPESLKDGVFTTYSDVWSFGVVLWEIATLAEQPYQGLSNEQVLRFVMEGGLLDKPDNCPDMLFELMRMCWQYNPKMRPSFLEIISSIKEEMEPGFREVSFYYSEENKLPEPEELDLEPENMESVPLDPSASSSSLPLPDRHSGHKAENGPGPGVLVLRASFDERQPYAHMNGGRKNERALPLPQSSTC
Protocol: as §1, §2

T1 sequence (P08069 954-1367): as above

| Compound | IC50 ([1]; IGF1R kinase LCCA assay) [nM] | IC50 (IGF 3P; IGF1R kinase LCCA assay) [nM] | IC50 [1] [nM] | IC50 (IGF 3P) [nM] |
| --- | --- | --- | --- | --- |
| CN1CCN(c2cc(Nc3cc(C4CC4)n[nH]3)nc(NCc3cc(-c4ccc(F)cc4)no3)n2)CC1 [Example 605, N^4-(3-cyclopropyl-1H-pyrazol-5-yl)-N^2-{[3-(4-fluorophenyl)isoxazol-5-yl]methyl}-6-(4-methylpiperazin-1-yl)pyrimidine-2,4-diamine] | – | – | 50 to 500 | < 50 |
| CC(C)c1cc(CNc2nc(Nc3cc(C4CC4)n[nH]3)cc(OCCN3CCCCC3)n2)on1 [Example 597, N^4-(3-cyclopropyl-1H-pyrazol-5-yl)-N^2-{[3-(1-methylethyl)isoxazol-5-yl]methyl}-6-[(2-piperidin-1-ylethyl)oxy]pyrimidine-2,4-diamine] | – | – | 50 to 500 | < 50 |
| Brc1cnc(NC(Cc2ccccc2)c2ccccc2)nc1Nc1cc(C2CC2)[nH]n1 (centres unmarked) [Example 333] | > 5000 | > 5000 | – | – |
| Cc1cc(Nc2cc(C3CC3)[nH]n2)nc(NCc2cc(-c3ccncc3)no2)n1 [Example 620, N^4-(5-cyclopropyl-1H-pyrazol-3-yl)-6-methyl-N^2-[(3-pyridin-4-ylisoxazol-5-yl)methyl]pyrimidine-2,4-diamine] | – | – | 50 to 500 | 50 to 500 |
| CC(C)(C)OC(=O)N1CCC(CNc2ncc(Br)c(Nc3cc(C4CC4)n[nH]3)n2)CC1 [Example 315] | > 5000 | > 5000 | – | – |
| CC(C)c1cc(Nc2cc(OCCN3CCOCC3)nc(NCc3cc(-c4ccc(F)cc4)no3)n2)[nH]n1 [Example 609] | – | – | 50 to 500 | < 50 |
| CC(C)c1cc(CNc2nc(Nc3cc(C4CC4)n[nH]3)cc(N3CCC(CCO)CC3)n2)on1 [Example 662, 2-(1-{6-[(3-cyclopropyl-1H-pyrazol-5-yl)amino]-2-({[3-(1-methylethyl)isoxazol-5-yl]methyl}amino)pyrimidin-4-yl}piperidin-4-yl)ethanol] | – | – | 50 to 500 | < 50 |
| CC(=O)NCC#CCn1cc(-c2cccc(OCc3ccccc3)c2)c2c(N)ncnc21 [Example 355] | > 5000 | > 5000 | – | – |
| Brc1cnc(Nc2ccccc2N2CCCCC2)nc1Nc1cc(C2CC2)[nH]n1 [Example 334] | > 5000 | > 5000 | – | – |
| COc1ccc(CNc2ncc(Br)c(Nc3cc(C4CC4)n[nH]3)n2)cc1OC [Example 247] | > 5000 | 500 to 5000 | – | – |
| COc1cc(Nc2nc(C)cc(Nc3cc(C4CC4)n[nH]3)n2)cc(C(F)(F)F)c1 [Example 302] | > 5000 | > 5000 | – | – |
| Cc1cc(N2CCN(C)CC2)nc(N2CCN(C)CC2)n1 [Example 308] | > 5000 | > 5000 | – | – |
| CN1CCN(C(=O)Cc2ccc(Nc3ncc(Br)c(Nc4cc(C5CC5)n[nH]4)n3)cc2)CC1 [Example 37] | 500 to 5000 | 50 to 500 | – | – |
| Clc1ccccc1CCNc1ncc(Br)c(Nc2cc(C3CC3)n[nH]2)n1 [Example 272] | > 5000 | > 5000 | – | – |
| COc1cc(Nc2ncc(Br)c(Nc3cc(C4CC4)n[nH]3)n2)cc(C(F)(F)F)c1 [Example 258] | > 5000 | > 5000 | – | – |
| Nc1ncnn1-c1nc(Nc2ccc(N3CCOCC3)cc2)ncc1Br [Example 285] | > 5000 | > 5000 | – | – |
| Cc1cc(Nc2cc(C)on2)nc(Nc2ccc(N3CCOCC3)cc2)n1 [Example 295] | > 5000 | > 5000 | – | – |
| Cc1cc(Nc2ccccc2)nc(Nc2ccc(CCC(=O)NCCN3CCCC3)cc2)n1 [Example 309] | > 5000 | > 5000 | – | – |
| Clc1ccc(-c2ncc(CNc3ncc(Br)c(Nc4cc(C5CC5)[nH]n4)n3)s2)cc1 [Example 289] | > 5000 | > 5000 | – | – |
| CC(C)c1cc(CNc2nc(Nc3cc(C4CC4)[nH]n3)cc(OCCN3CCOCC3)n2)on1 [Example 594, N^4-(5-cyclopropyl-1H-pyrazol-3-yl)-N^2-{[3-(1-methylethyl)isoxazol-5-yl]methyl}-6-[(2-morpholin-4-ylethyl)oxy]pyrimidine-2,4-diamine] | – | – | 500 to 5000 | < 50 |
| Brc1cnc(NCc2cc(-c3ccccc3)no2)nc1Nc1ccccc1 [Example 292] | > 5000 | > 5000 | – | – |
| CC(C)c1cc(Nc2cc(N3CCN[C@@H](C)C3)nc(NCc3cc(-c4ccccc4)no3)n2)n[nH]1 [Example 591, N^4-[5-(1-methylethyl)-1H-pyrazol-3-yl]-6-[(3S)-3-methylpiperazin-1-yl]-N^2-[(3-phenylisoxazol-5-yl)methyl]pyrimidine-2,4-diamine] | – | – | 50 to 500 | < 50 |
| FC(F)(F)c1cc(Nc2ncc(Br)c(Nc3cc(C4CC4)n[nH]3)n2)cc(C(F)(F)F)c1 [Example 304] | > 5000 | > 5000 | – | – |
| c1cc(N2CCOCC2)ccc1Nc1nc2c(c(Nc3cc(C4CC4)[nH]n3)n1)CCNC2 [Example 282] | > 5000 | > 5000 | – | – |
| CC(=O)Nc1cnc(Nc2ccccc2Cl)nc1Nc1cc(C2CC2)n[nH]1 [Example 280] | > 5000 | > 5000 | – | – |
| Nc1nc(C2CC2)nn1-c1nc(Nc2ccc(N3CCOCC3)cc2)ncc1Br [Example 284] | > 5000 | > 5000 | – | – |

Further lines, results first:

| IC50 ([1]; IGF1R kinase LCCA assay) [nM] | IC50 (IGF 3P; IGF1R kinase LCCA assay) [nM] | IC50 [1] [nM] | IC50 (IGF 3P) [nM] | Compound |
| --- | --- | --- | --- | --- |
| 500 to 5000 | 500 to 5000 | – | – | Clc1cccc(Nc2nc(Nc3ccccc3Cl)ncc2Br)c1 [Example 205] |
| 500 to 5000 | 500 to 5000 | – | – | Cc1cnc(Nc2ccc(N(C)C)cc2)nc1Nc1cc(C2CC2)n[nH]1 [Example 175] |
| 500 to 5000 | 500 to 5000 | – | – | CCN(CC)CCNC(=O)c1cc2ccc(Nc3nc(C)cc(Nc4cc(C5CC5)n[nH]4)n3)cc2s1 [Example 221] |
| 500 to 5000 | 500 to 5000 | – | – | COc1cc(Nc2nccc(Nc3cc(C4CC4)n[nH]3)n2)cc(OC)c1 [Example 203] |
| 50 to 500 | 50 to 500 | – | – | Brc1cnc(NCc2ccco2)nc1Nc1cc(C2CC2)n[nH]1 [Example 138] |
| 50 to 500 | 50 to 500 | – | – | CN(C)c1cc(Nc2cc(C3CC3)[nH]n2)nc(NCc2cc(-c3ccccc3)no2)n1 [Example 110] |
| 500 to 5000 | 50 to 500 | – | – | Clc1cc(Br)ccc1Nc1ncc(Br)c(Nc2cc(C3CC3)[nH]n2)n1 [Example 143] |
| 50 to 500 | 50 to 500 | – | – | c1ccc(-c2cc(CNc3nc(CN4CCOCC4)cc(Nc4cc(C5CC5)[nH]n4)n3)on2)cc1 [Example 561] |
| 50 to 500 | < 50 | – | – | c1ccc(-c2cc(CNc3nc(Nc4cc(C5CC5)[nH]n4)cc(OCCN4CCOCC4)n3)on2)cc1 [Example 501] |
| 500 to 5000 | 500 to 5000 | – | – | c1cc(Nc2cc(C3CC3)n[nH]2)nc(Nc2ccc(N3CCOCC3)cc2)n1 [Example 224] |
| 50 to 500 | 50 to 500 | – | – | Cc1cc(Nc2cc(C3CC3)[nH]n2)nc(NCc2cc(-c3ccccc3Br)no2)n1 [Example 525] |
| 500 to 5000 | 500 to 5000 | – | – | CN(Cc1ccccc1Cl)c1ncc(Br)c(Nc2cc(C3CC3)[nH]n2)n1 [Example 204] |
| 50 to 500 | 50 to 500 | – | – | Brc1ccccc1Nc1ncc(Br)c(Nc2cc(C3CC3)n[nH]2)n1 [Example 83] |
| 50 to 500 | 50 to 500 | – | – | c1ccc(-c2cc(CNc3nc(Nc4cc(C5CC5)n[nH]4)cc(N4CCCC4)n3)on2)cc1 [Example 12] |
| 500 to 5000 | < 50 | – | – | CC(C)c1cc(CNc2ncc(Br)c(Nc3cc(C4CC4)[nH]n3)n2)on1 [Example 65] |
| 50 to 500 | 50 to 500 | – | – | Cc1cc(Nc2cc(C3CC3)[nH]n2)nc(NCc2cc(C3CCCCC3)no2)n1 [Example 82] |
| 500 to 5000 | > 5000 | – | – | Cc1cc(C)cc(Nc2nc(C)cc(Nc3cc(C4CC4)n[nH]3)n2)c1 [Example 270] |
| 500 to 5000 | 50 to 500 | – | – | CN1CCN(C(=O)c2cccc(Nc3ncc(Br)c(Nc4cc(C5CC5)n[nH]4)n3)c2)CC1 [Example 128] |
| 50 to 500 | < 50 | – | – | CN1CCN(CCNc2cc(Nc3cc(C4CC4)[nH]n3)nc(NCc3cc(-c4ccccc4)no3)n2)CC1 [Example 509] |
| 500 to 5000 | 50 to 500 | – | – | Cc1cc(Nc2cc(C3CC3)n[nH]2)nc(Nc2ccc(CCC(=O)N(C)C)cc2)n1 [Example 111] |
| 50 to 500 | 50 to 500 | – | – | CN1CCN(CCNC(=O)c2cc(Nc3cc(C4CC4)[nH]n3)nc(NCc3cc(-c4ccccc4)no3)n2)CC1 [Example 527] |
| 500 to 5000 | 500 to 5000 | – | – | N#Cc1ccc(Nc2ncc(Br)c(Nc3cc(C4CC4)n[nH]3)n2)cc1 [Example 166] |
| 50 to 500 | 50 to 500 | – | – | Clc1ccccc1Nc1ncc(Cl)c(Nc2cc(C3CC3)[nH]n2)n1 [Example 101] |
| 500 to 5000 | < 50 | – | – | CC(C)c1cc(CNc2nc(Cl)cc(Nc3cc(C(C)C)[nH]n3)n2)on1 [Example 544] |
| 500 to 5000 | 50 to 500 | – | – | CN1CCN(C(=O)CCc2ccc(Nc3ncc(Br)c(Nc4cc(C5CC5)[nH]n4)n3)cc2)CC1 [Example 85] |
| 50 to 500 | < 50 | – | – | O=C(NCCN1CCCC1)c1cc(Nc2cc(C3CC3)[nH]n2)nc(NCc2cc(-c3ccccc3)no2)n1 [Example 521] |
| 500 to 5000 | 500 to 5000 | – | – | Cc1cc(Nc2cc(-c3ccco3)[nH]n2)nc(NCc2cc(-c3ccccc3)no2)n1 [Example 246] |
| 500 to 5000 | 50 to 500 | – | – | Brc1cnc(Nc2ccc(N3CCOCC3)nc2)nc1Nc1cc(C2CC2)n[nH]1 [Example 81] |
| 500 to 5000 | 500 to 5000 | – | – | c1ccc(CN2CCc3c(nc(NCc4cc(-c5ccccc5)no4)nc3Nc3cc(C4CC4)[nH]n3)C2)cc1 [Example 242] |
